{"source": "patent US8377883B2", "about": "“Peptide for anti-angiogenesis and use thereof” (Beijing Institute for Cancer Research, priority 2006, dated 2013)", "key": {"[1]": {"test_system": "human umbilical vein endothelial cells (HUVECs)", "assay": "Apoptosis of HUVECs (flow cytometry, DNA Ladder, RT-PCR, Western blotting)", "type": "cell-based", "settings": "50 μg/ml PBS, 96 hours", "description": "Human umbilical cord samples (obtained from Beijing Obstetrics & Gynecology Hospital) was digested with 0.1% collagenase I (available from GIBCO BRL company), followed by a centrifugation (1000 rpm, 10 minutes) to collect human umbilical vein endothelial cells (HUVECs). After suspended in 20% FCS/RPMI1640, the cells were transferred into plastic bottles for culture in CO2 incubator (37° C., 5% CO2). Twelve hours later, unattached cells were discarded by changing medium, and then the remaining cells were cultured conventionally with the medium changed every 3 days. The vehicle (PBS) and FpAT (50 μg/ml PBS) were added separately, and the cells were collected at 96 hours. Flow Cytometry: the cells were digested with 0.04% trypsin-EDTA, collected and washed 3 times with PBS; the cells were suspended by adding 200 μl PBS and aspirated gently to avoid formation of cell mass. 800 μl cold absolute alcohol was added, and then the cells was fixed at 4° C. overnight; and after a centrifugation at 1000×g for 5 min at 4° C., and the supernatant were discarded. The cells were washed twice with PBS, re-suspended with 200 μl PBS containing RNaseA at a concentration of 1 mg/ml, and incubated at 37° C. for 30 minutes. PI staining solution (final concentration of 50 μg/ml) was added, and the well mixed cells were subjected to a reaction at 4° C. for 30 minutes in the dark. The detection was performed on a flow cytometer. DNA Ladder analysis: the cells differently treated (PBS and FpAT) were collected by a centrifugation at 1000 rpm for 5 minutes, and the cells were lysed with lysis solution (10 mM Tris-HCl, 5 mM EDTA, 1% Triton-X 100, 10 mM NaCl, 100 μg/ml protease K), and aspirated repeatedly to cut viscous genomic DNA, which theoretically generates DNA fragments in a uniform size of 20 to 30 kb; phenols and chloroform were used to extract, and after precipitated with absolute ethanol, the total DNA were dissolved in TE or water, and treated with Rnase A at 37° C. for 1˜2 hours. Five microliters was taken for an electrophoresis on 1.8% agarose gel. […]"}, "[2]": {"test_system": "human gastric carcinoma BGC-823 cells", "assay": "Tumor suppression in human gastric carcinoma BGC-823 tumor-bearing nude mice model", "type": "in vivo, Balb/c nude mice", "settings": "50 μg/100 μl PBS/injection, angulus oculi medialis vein once every other day, 10 times; vs vehicle, P<0.05", "description": "(§1) In order to confirm the biological effects of FpAT on the growth of human deriving tumors in nude mice in vivo, a tumor suppression experiment was carried out in this example using human gastric carcinoma BGC-823 cells tumor-bearing nude mice model, human lung cancer PG cells tumor-bearing nude mice model and human colon cancer HT-29 cells tumor-bearing nude mice model.\n(§2) Twenty 5-week old Balb/c nude mice purchased from Animal Center Of Chinese Academy Of Medical Sciences were inoculated subcutaneously in forelimb with human gastric carcinoma BGC-823 cells (National Institute for the Control of Pharmaceutical and Biological Products) (5×10^6/100 μl/mouse), human lung cancer PG cells (National Institute for the Control of Pharmaceutical and Biological Products) (5×10^6/100 μl/mouse) or human colon cancer HT-29 cells (ATCC® Number: HTB-38™) (5×10^6/100 μl/mouse). On the next day after inoculation, each kind of inoculated cells were divided into 2 groups randomly with 5 mice per group. […] Observation was continued for another 20 days after administration was stopped, and during this period the long and short diameters of the tumors were measured with a vernier caliper once every three days, and the volumes of the tumor mass were calculated according to formula ½×long diameter×short diameter^2. […]"}, "[3]": {"test_system": "human colon cancer HT-29 cells", "assay": "Tumor suppression in human colon cancer HT-29 tumor-bearing nude mice model", "type": "in vivo, Balb/c nude mice", "settings": "50 μg/100 μl PBS/injection, angulus oculi medialis vein once every other day, 10 times; vs vehicle, P<0.05", "description": "as §1, §2"}, "[4]": {"test_system": "human umbilical vein endothelial cells (HUVECs)", "assay": "Three-dimensional tubular structure formation of HUVECs", "type": "cell-based", "settings": "10, 25, 100 μg/ml PBS; 48, 72, 96 hours", "description": "Human umbilical cord samples (obtained from Beijing Obstetrics & Gynecology Hospital) was digested with 0.1% collagenase I (available from GIBCO BRL company), followed by a centrifugation (1000 rpm, 10 minutes) to collect human umbilical vein endothelial cells (HUVECs). After suspended in 20% FCS/RPMI1640, the cells were transferred into plastic bottles for culture in CO2 incubator (37° C., 5% CO2). Twelve hours later, unattached cells were discarded by changing medium, and then the remaining cells were cultured conventionally with the medium changed every 3 days. The cultured HUVECs were digested with 0.04% trypsin-EDTA, and inoculated into 24-well plate at 2×10^4 cells/well; and the vehicle (PBS) and FpAT (10 μg/ml PBS, 25 μg/ml PBS, 100 μg/ml PBS) were added separately, with 3 parallel wells per group."}}, "data": [{"substance": "H2N-Asp-Ser-Gly-Glu-Gly-Asp-Phe-Leu-Ala-Glu-Gly-Gly-Gly-Val-Arg-COOH (H-DSGEGDFLAEGGGVR-OH; listed as Homo sapiens) [FpAT, fibrinopeptide A truncated, carboxyl terminal 15 amino acids of fibrinopeptide A]", "values": [{"measurement": "DNA Ladder in total DNA of HUVECs", "setting": "[1]", "result": "presence of plenty of DNA Ladder"}, {"measurement": "apoptosis of HUVECs by flow cytometry", "setting": "[1]; PI staining", "result": "presence of an evidence apoptosis peak"}, {"measurement": "effect on cell cycle of HUVECs", "setting": "[1]; flow cytometry", "result": "no remarkable effects on cell cycle"}, {"measurement": "growth of human gastric carcinoma BGC-823 cells in nude mice (tumor mass)", "setting": "[2]", "result": "could suppress the growths"}, {"measurement": "growth of human colon cancer HT-29 cells in nude mice (tumor mass)", "setting": "[3]", "result": "could suppress the growths"}, {"measurement": "ability to form a three-dimensional and tubular structure of HUVECs", "setting": "[4]", "result": "can suppress specifically"}]}]}
